Where two headings read alike, the source gives them in different places.
System: Adult mongrel dogs
Assay: Cardiotonic activity: hemodynamic and inotropic responses (MAP, HR, dP/dt, contractile force) in anesthetized dogs, iv infusion
Type: in vivo, mongrel dog
Conditions: Canis lupus familiaris; for ED50: dose producing a 50% increase above baseline in myocardial contractile force, iv, read-out: contractile force (CF) ED50
Description: Adult mongrel dogs were anesthetized with sodium pentobarbital (45 mg/kg, i.p.) and artificially respired. Mean arterial pressure (MAP) was recorded from a cannulated femoral artery and drugs were infused into a cannulated femoral vein. The arterial pressure pulse was used to trigger a cardiotachometer for determination of heart rate (HR). Left ventricular pressure was measured with a Millar catheter and dP/dtmax was derived. A right thoracotomy was performed and myocardial contractile force (CF) was measured with a Walton Brodie strain gauge sutured to the right ventricle. The ventricular muscle was stretched to produce a baseline tension of 100 g. A standard dose of dopamine (10-15 ug/kg/min for 3 min) was administered to determine myocardial responsiveness to inotropic stimulation.
Test compounds were solubilized in a small volume of DMF diluted to a final concentration of 10% in physiological saline. Alternatively, where possible, a soluble hydrochloride salt was prepared by addition of 0.1N HCl diluted in physiological saline. Vehicles were tested in appropriate volumes and found to exert less than a 5% effect on contractile force. For iv studies, compounds were administered by infusion pump (one drug per animal) at rates of 0.58-2.2 mL/min in three to four stepwise increasing doses. Each dose was infused over 5 min immediately after the effect of the previous dose peaked. MAP, HR, dP/dtmax and CF responses were continuously monitored on a Beckman or Gould recorder and expressed as a percent change from pre-drug control values vs. the cumulative dose of drug administered. For these studies, n represents the number of test animals used.
Quantitation of the inotropic potency was obtained by calculation of the contractile force (CF) ED50. This was defined as the dose of compound that produced a 50% increase above baseline in myocardial contractile force. The value was obtained from three to four point dose-response curves using either graphical estimation (n<3) or linear regression analysis (n≥3). Numbers in parentheses are number of animals screened.

[1] = Table 1, 1.875 mg/kg iv, cumulative dose, read-out: CF (myocardial contractile force), % from Control
[2] = Table 1, 1.875 mg/kg iv, cumulative dose, read-out: HR (heart rate), % from Control
[3] = Table 1, 1.875 mg/kg iv, cumulative dose, read-out: MAP (mean arterial pressure), % from Control
[4] = Table 1, 1.875 mg/kg iv, cumulative dose, read-out: dPdt (left ventricular dP/dtmax), % from Control
[5] = Table 2, 1.875 mpk iv, read-out: CF (myocardial contractile force), percent change from pre-drug control
[6] = Table 2, 1.875 mpk iv, read-out: HR (heart rate), percent change from pre-drug control
[7] = Table 2, 1.875 mpk iv, read-out: MAP (mean arterial pressure), percent change from pre-drug control
[8] = Table 2, 1.875 mpk iv, read-out: dP/dt (left ventricular dP/dtmax), percent change from pre-drug control
[9] = range in parentheses on next line

Q: Which results are given for `OC(CSc1ncnc2[nH]cnc12)CN1CCN(C(c2ccc(Cl)cc2)c2ccc(Cl)cc2)CC1` (stereo not shown) [Example 16, 6-[1-[1-[Bis(4-chlorophenyl)methyl]piperazin-4-yl]-2 hydroxy-3-propanylthio]purine.cndot.5/4 Hydrate]?
A: change in vivo at 1.875 mg/kg [1]: 151%; change in vivo at 1.875 mg/kg [2]: -4%; change in vivo at 1.875 mg/kg [3]: 9%; change in vivo at 1.875 mg/kg [4]: 99%; ED50: 0.608 mg/kg

Q: How did the change in vivo at 1.875 mg/kg [1] turn out when `OC(COc1ncnc2nc[nH]c12)CN1CCN(C(c2ccccc2)c2ccccc2)CC1` (stereo not shown) [Example 20, 6-[3-[4-(Diphenylmethyl)piperazin-1-yl]-2-hydroxypropoxy]-purine] was run?
A: 66%

Q: What about the change in vivo at 1.875 mg/kg [2] of the same compound?
A: 2%

Q: What about the change in vivo at 1.875 mg/kg [3] of the same compound?
A: 4%

Q: What about the change in vivo at 1.875 mg/kg [4] of the same compound?
A: 36%

Q: For `OC(CSc1ncnc2[nH]cnc12)CN1CCN(Cc2ccccc2)CC1` (stereo not shown) [Example 5, 6-[1-[1-(Benzyl)piperazin-4-l]-2-hydroxy-3-propanylthio]purine Monomalonate.cndot.5/2 Hydrate], which change in vivo at 1.875 mg/kg [1] is on record?
A: 43%

Q: What about the change in vivo at 1.875 mg/kg [2] of the same compound?
A: 5%

Q: What about the change in vivo at 1.875 mg/kg [3] of the same compound?
A: -3%

Q: What about the change in vivo at 1.875 mg/kg [4] of the same compound?
A: 58%

Q: `Cc1nc(SCC(O)CN2CCN(C(c3ccc(F)cc3)c3ccc(F)cc3)CC2)c2nc[nH]c2n1` (stereo not shown) [Example 30, 2-Methyl-6-[1-[1-[bis(4-fluorophenyl)methyl]piperazin-4-yl]-2-hydroxy-3-propanylthio]purine 3/4Hydrate] was tested. Which change in vivo at 1.875 mg/kg [5] did it give?
A: 23%

Q: And the change in vivo at 1.875 mg/kg [6]?
A: 1%

Q: And the change in vivo at 1.875 mg/kg [7]?
A: 1%

Q: What about the change in vivo at 1.875 mg/kg [8] of the same compound?
A: 17%

Q: Which results are given for `OC(CSc1ncnc2[nH]cnc12)CN1CCN(C(c2cccc(C(F)(F)F)c2)c2cccc(C(F)(F)F)c2)CC1` (stereo not shown) [Example 23, 6-[1-[1-[Bis(3-trifluoromethylphenyl)methyl]piperazin-4-yl]-2-hydroxy-3-propanylthio]purine Hemihydrate]?
A: change in vivo at 1.875 mg/kg [5]: 44%; change in vivo at 1.875 mg/kg [6]: -7%; change in vivo at 1.875 mg/kg [7]: 7%; change in vivo at 1.875 mg/kg [8]: 30%

Q: Which results are given for `O[C@H](CSc1ncnc2nc[nH]c12)CN1CCN(C(c2ccc(F)cc2)c2ccc(F)cc2)CC1` [Example 2, (2S)-(+)-6-[1-[1-[Bis(4-fluorophenyl)methyl]piperazin-4-yl]-2-hydroxy-3-propanylthio]purine]?
A: change in vivo at 1.875 mg/kg [1]: 212%; change in vivo at 1.875 mg/kg [2]: -6%; change in vivo at 1.875 mg/kg [3]: -13%; change in vivo at 1.875 mg/kg [4]: 168%; ED50 [9]: 0.07 mg/kg

Q: What does the source list for `OC(CSc1ncnc2[nH]c(-c3ccccc3)nc12)CN1CCN(C(c2ccc(F)cc2)c2ccc(F)cc2)CC1` (stereo not shown) [Example 24, 6-[1-[1-[Bis(4-fluorophenyl)methyl]piperazin-4-yl]-2-hydroxy-3-propanylthio]-8-phenylpurine.cndot.1/3Hydrate]?
A: change in vivo at 1.875 mg/kg [5]: 12%; change in vivo at 1.875 mg/kg [6]: 4%; change in vivo at 1.875 mg/kg [7]: -3%; change in vivo at 1.875 mg/kg [8]: 5%

Q: With `OC(COc1ncnc2c1ncn2C1CCCCO1)CN1CCN(C(c2ccccc2)c2ccccc2)CC1` (stereo not shown) [Example 19] as the compound, how does the change in vivo at 1.875 mg/kg [1] read?
A: 43%

Q: What about the change in vivo at 1.875 mg/kg [2] of the same compound?
A: 3%

Q: What about the change in vivo at 1.875 mg/kg [3] of the same compound?
A: 2%

Q: What about the change in vivo at 1.875 mg/kg [4] of the same compound?
A: 19%

Q: How did the change in vivo at 1.875 mg/kg [1] turn out when `O[C@@H](CSc1ncnc2nc[nH]c12)CN1CCN(C(c2ccc(F)cc2)c2ccc(F)cc2)CC1` [Example 3, (2R)-(-)-6-[1-[1-[Bis(4-fluorophenyl)methyl]piperazin-4-yl]-2-hydroxy-3-propanylthio]purine] was run?
A: 151%

Q: What about the change in vivo at 1.875 mg/kg [2] of the same compound?
A: -8%

Q: And the change in vivo at 1.875 mg/kg [3]?
A: -4%

Q: And the change in vivo at 1.875 mg/kg [4]?
A: 91%

Q: And the ED50 [9]?
A: 0.35 mg/kg

Q: With `OC(COc1ncnc2[nH]cnc12)CN1CCN(C(c2ccc(F)cc2)c2ccc(F)cc2)CC1` (stereo not shown) [Example 18, 6-[3-[4-Bis(4-fluorophenyl)methyl]piperazin-1-yl-2-hydroxy]propoxypurine] as the compound, how does the change in vivo at 1.875 mg/kg [1] read?
A: 80%

Q: What about the change in vivo at 1.875 mg/kg [2] of the same compound?
A: 12%

Q: And the change in vivo at 1.875 mg/kg [3]?
A: 4%

Q: What about the change in vivo at 1.875 mg/kg [4] of the same compound?
A: 58%

Q: What about the ED50 of the same compound?
A: 0.825 mg/kg

Q: Which results are given for `Nc1nc(SCC(O)CN2CCN(C(c3ccc(F)cc3)c3ccc(F)cc3)CC2)c2nc[nH]c2n1` (stereo not shown) [Example 25, 2-Amino-6-[1-[1-bis(4-fluorophenyl)methyl]piperazin-4-yl]-2-hydroxy-3-propanyl-thio]purine Hemihydrate]?
A: change in vivo at 1.875 mg/kg [5]: 84%; change in vivo at 1.875 mg/kg [6]: 9%; change in vivo at 1.875 mg/kg [7]: -15%; change in vivo at 1.875 mg/kg [8]: 23%

Q: What does the source list for `CCN(CC(O)CN1CCN(C(c2ccc(F)cc2)c2ccc(F)cc2)CC1)c1ncnc2nc[nH]c12` (stereo not shown) [Example 27, 6-[3-[4-[Bis(4-fluorophenyl)methyl]piperazin-1-yl]-2-hydroxypropyl-N-ethylamino]purine]?
A: change in vivo at 1.875 mg/kg [5]: 10%; change in vivo at 1.875 mg/kg [6]: 6%; change in vivo at 1.875 mg/kg [7]: 3%; change in vivo at 1.875 mg/kg [8]: 14%

Q: `COC(=O)CCn1cnc2c(SCC(CN3CCN(C(c4ccc(F)cc4)c4ccc(F)cc4)CC3)OC(C)=O)ncnc21` (stereo not shown) [Example 26, 6-[1-[1-[Bis(4-fluorophenyl)methyl]piperazin-4-yl-]-2-acetoxy-3-propanylthio]purin-9-yl-3-propanoic acid, methyl ester] was tested. Which change in vivo at 1.875 mg/kg [5] did it give?
A: 34%

Q: What about the change in vivo at 1.875 mg/kg [6] of the same compound?
A: -3%

Q: And the change in vivo at 1.875 mg/kg [7]?
A: -10%

Q: And the change in vivo at 1.875 mg/kg [8]?
A: 29%

Q: How did the change in vivo at 1.875 mg/kg [1] turn out when `OC(CSc1ncnc2[nH]cnc12)CN1CCC(=C(c2ccc(F)cc2)c2ccc(F)cc2)CC1` (stereo not shown) [Example 15, 6-[1-[4-[Bis(4'-fluorophenyl)methylene]-1-piperidinyl]-2-hydroxy-3-propanylthio]purine Hemihydrate] was run?
A: 87%

Q: What about the change in vivo at 1.875 mg/kg [2] of the same compound?
A: -7%

Q: And the change in vivo at 1.875 mg/kg [3]?
A: -14%

Q: And the change in vivo at 1.875 mg/kg [4]?
A: 28%

Q: What about the ED50 of the same compound?
A: 0.725 mg/kg

Q: Which results are given for `OC(COc1ncnc2c1ncn2C1CCCCO1)CN1CCN(C(c2ccc(F)cc2)c2ccc(F)cc2)CC1` (stereo not shown) [Example 17]?
A: change in vivo at 1.875 mg/kg [1]: 37%; change in vivo at 1.875 mg/kg [2]: 0%; change in vivo at 1.875 mg/kg [3]: -13%; change in vivo at 1.875 mg/kg [4]: 16%

Q: What does the source list for `OC(CSc1ncnc2[nH]cnc12)CN1CCN(C(c2ccc(F)cc2)c2ccc(F)cc2)CC1` (stereo not shown) [Example 1, 6-[1-[1-[Bis(4-fluorophenyl)methyl]piperazine-4-yl]-2-hydroxy-3-propanylthio]purine Hemihydrate]?
A: change in vivo at 1.875 mg/kg [1]: 214%; change in vivo at 1.875 mg/kg [2]: 1%; change in vivo at 1.875 mg/kg [3]: -5%; change in vivo at 1.875 mg/kg [4]: 127%; ED50 [9]: 0.16 mg/kg

Q: What does the source list for `CC(=O)OC(CSc1ncnc2[nH]cnc12)CN1CCN(C(c2ccc(F)cc2)c2ccc(F)cc2)CC1` (stereo not shown) [Example 11, 6-[1-[1-[Bis(4-fluorophenyl)methyl]piperazin-4-yl]-2-acetoxy-3-propanylthio]purine 3/4 Hydrate]?
A: change in vivo at 1.875 mg/kg [1]: 145%; change in vivo at 1.875 mg/kg [2]: -4%; change in vivo at 1.875 mg/kg [3]: -12%; change in vivo at 1.875 mg/kg [4]: 62%; ED50: 0.45 mg/kg

Q: Which results are given for `Cn1cnc2c(SCC(O)CN3CCN(C(c4ccc(F)cc4)c4ccc(F)cc4)CC3)ncnc21` (stereo not shown) [Example 29, 9-Methyl-6-[1-[1-[bis(4-fluorophenyl)methyl]piperazin-4-yl]-2-hydroxy-3-propanylthio]purine Hemihydrate]?
A: change in vivo at 1.875 mg/kg [5]: 50%; change in vivo at 1.875 mg/kg [6]: -2%; change in vivo at 1.875 mg/kg [7]: -6%; change in vivo at 1.875 mg/kg [8]: 11%

Q: Which results are given for `Fc1ccc(C(c2ccc(F)cc2)N2CCN(CCCSc3ncnc4nc[nH]c34)CC2)cc1` [Example 14, 6-[1-[1-[Bis(4-fluorophenyl)methyl]piperazin-4-yl]-3-propanylthio]purine]?
A: change in vivo at 1.875 mg/kg [1]: 38%; change in vivo at 1.875 mg/kg [2]: 2%; change in vivo at 1.875 mg/kg [3]: -6%; change in vivo at 1.875 mg/kg [4]: 17%

Q: Which results are given for `OC(CSc1ncnc2[nH]cnc12)CN1CCN(C(c2ccccc2)c2ccc(Cl)cc2)CC1` (stereo not shown) [Example 7, 6-[1-[1-(4-Chlorobenzhydryl)]piperazin-4-yl]-2-hydroxy-3-propanylthio]purine Monohydrate]?
A: change in vivo at 1.875 mg/kg [1]: 97%; change in vivo at 1.875 mg/kg [2]: 0%; change in vivo at 1.875 mg/kg [3]: 1%; change in vivo at 1.875 mg/kg [4]: 75%

Q: For `OC(CSc1ncnc2[nH]cnc12)CN1CCN(C(c2ccccc2)c2ccccc2)CC1` (stereo not shown) [Example 4, 6-[2-Hydroxy-3-(1-(diphenylmethyl)piperazin-4-yl)propan-1-yl]triopurine Hemihydrate], which change in vivo at 1.875 mg/kg [1] is on record?
A: 86%

Q: What about the change in vivo at 1.875 mg/kg [2] of the same compound?
A: -1%

Q: What about the change in vivo at 1.875 mg/kg [3] of the same compound?
A: -12%

Q: What about the change in vivo at 1.875 mg/kg [4] of the same compound?
A: 60%

Source: US5164390A, “6-substituted purinyl piperazine derivatives” (Ortho Pharmaceutical Corporation, priority 1991, dated 1992)
